Reference: paper PMC6271941, “Ruthenium^II(η^6-arene) Complexes of Thiourea Derivatives: Synthesis, Characterization and Urease Inhibition” (Molecules, 2014)

Biological target: jack bean urease (Canavalia ensiformis, UniProt P07374)
Test: biochemical
Assay type: biochemical
Details: not given
Procedure: The urease inhibitory activity was measured according to a reported method with slight modifications. The enzyme (5 U/mL; 10 μL) and test compound in buffer (10 μL) were sequentially added to 40 μL of buffer (pH 8.2) containing 100 mM urea, 1 mM EDTA, 0.01 M K2HPO4 and 0.01 M […]. The mixture was pre-incubated for 30 min at 37 °C. The reaction was initiated by the addition of 40 μL of phenol reagent (1%, w/v phenol, 0.005%, w/v sodium nitroprusside) and 40 μL of alkali reagent (0.5%, w/v NaOH, 0.1% active chloride NaOCl) to each well. After 10 min of incubation at 37 °C, the absorbance was measured at 630 nm using a Microplate reader (Bio-Tek ELx 800^TM, Instruments, Inc. USA). All the experiments were carried out with their respective controls in triplicate. Thiourea (0.1 mM well^−1) was used as a positive control.

Chain of jack bean urease (P07374 whole entry, looked up): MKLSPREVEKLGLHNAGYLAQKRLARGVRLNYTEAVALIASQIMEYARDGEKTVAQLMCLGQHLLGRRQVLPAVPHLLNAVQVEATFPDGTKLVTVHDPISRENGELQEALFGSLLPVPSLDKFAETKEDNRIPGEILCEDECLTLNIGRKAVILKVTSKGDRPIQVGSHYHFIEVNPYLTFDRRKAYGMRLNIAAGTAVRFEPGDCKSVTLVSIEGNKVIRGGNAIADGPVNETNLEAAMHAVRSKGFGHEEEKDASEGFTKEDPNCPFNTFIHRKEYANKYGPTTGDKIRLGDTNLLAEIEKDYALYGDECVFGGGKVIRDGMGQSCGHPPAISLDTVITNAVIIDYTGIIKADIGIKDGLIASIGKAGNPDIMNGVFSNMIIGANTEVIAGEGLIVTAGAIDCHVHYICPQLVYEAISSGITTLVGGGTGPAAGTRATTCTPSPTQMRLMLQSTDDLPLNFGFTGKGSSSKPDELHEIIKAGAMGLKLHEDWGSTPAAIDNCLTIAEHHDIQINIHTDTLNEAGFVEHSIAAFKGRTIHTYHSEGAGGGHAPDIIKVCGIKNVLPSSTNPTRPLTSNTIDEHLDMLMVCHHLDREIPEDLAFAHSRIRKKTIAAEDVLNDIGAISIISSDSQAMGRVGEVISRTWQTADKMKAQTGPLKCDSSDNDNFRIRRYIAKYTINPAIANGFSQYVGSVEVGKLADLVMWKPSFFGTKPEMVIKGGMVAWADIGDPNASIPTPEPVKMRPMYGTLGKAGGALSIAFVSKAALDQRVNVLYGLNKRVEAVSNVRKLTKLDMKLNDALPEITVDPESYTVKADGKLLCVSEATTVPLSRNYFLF

Compound | IC50
S=C1NCCN1 [I, imidazolidine-2-thione] | 232 ± 27 µM
S=C1NCCCN1 [II, 1,3-diazinane-2-thione] | 118 ± 13 µM

Same assay, conditions: enzyme 5 U/mL, 100 mM urea, buffer pH 8.2, 30 min pre-incubation at 37 °C, absorbance at 630 nm, triplicate; read-out: Inhibitory activity IC50 against jack bean urease

Compound | IC50
[Chlorido(η^6-p-cymene)(1H-benzo[d]imidazole-2(3H)-thione)(triphenylphosphine)ruthenium(II)] hexafluorophosphate [Compound 13] | > 600 µM
[Chlorido(η^6-p-cymene)(imidazolidine-2-thione)(triphenylphosphine)ruthenium(II)] hexafluoro-phosphate [Compound 11] | > 600 µM
[Dichlorido(imidazolidine-2-thione)(η^6-toluene)ruthenium(II)] [Compound 9] | > 600 µM
[Dichlorido(1H-benzo[d]imidazole-2(3H)-thione)(η^6-p-cymene)ruthenium(II)] [Compound 8] | > 600 µM
[Chlorido(η^6-p-cymene)(1,3-diazinane-2-thione)(triphenylphosphine)ruthenium(II)] hexafluoro-phosphate [Compound 12] | > 600 µM
NC(N)=S [Thiourea] | 22.1 ± 1.4 µM
[Dichlorido(1,3-diazinane-2-thione)(η^6-p-cymene)ruthenium(II)] [Compound 7] | > 600 µM
[Dichlorido(imidazolidine-2-thione)(η^6-biphenyl)ruthenium(II)] [Compound 10] | > 600 µM

Same assay, conditions: jack bean urease; compared to thiourea as positive control

Compound | urease inhibitory activity (in words)
S=C1NCCCN1 [II, 1,3-diazinane-2-thione] | most active in the tested series

Same assay, conditions: jack bean urease; thiourea vs II

Compound | fold more active than compound II (IC50 ratio)
NC(N)=S [Thiourea] | more than 5 times
